According to patent US20180002288A1, “USE OF PICOLINAMIDES AS FUNGICIDES” (DOW AGROSCIENCES LLC, priority 2014, published 2018):
Read-outs that look alike come from different tables or passages of the source.

Tests used:
[1] = system: Phakopsora pachyrhizi; test: Asian Soybean Rust fungicidal activity (PHAKPA); conditions: for pest or weed control at 25 ppm: Phakopsora pachyrhizi, in Glycine max
[2] = system: Zymoseptoria tritici; test: Leaf Blotch of Wheat fungicidal activity (SEPTTR); assay type: in vivo; conditions: for pest or weed control at 121.5 g/ha: Low Volume Cereal Activity at 121.5 g/Ha; for pest or weed control at 100 ppm: wheat, high volume
[3] = system: Puccinia triticina; test: Wheat Brown Rust fungicidal activity (PUCCRT); assay type: in vivo; conditions: for pest or weed control at 121.5 g/ha: Low Volume Cereal Activity at 121.5 g/Ha; for pest or weed control at 100 ppm: wheat, high volume
[4] = 24 h, read-out: PHAKPA 1DP % Control rating, soybean, high volume, 25 ppm, 1 Day Protectant
[5] = 72 h, read-out: PHAKPA 3DC % Control rating, soybean, high volume, 25 ppm, 3 Day Curative
[6] = 24 h, 1 Day Protectant, read-out: SEPTTR 1DP (Wheat Leaf Blotch, 1 Day Protectant)
[7] = 72 h, 3 Day Curative, read-out: SEPTTR 3DC (Wheat Leaf Blotch, 3 Day Curative)
[8] = 24 h, 1 Day Protectant, read-out: PUCCRT 1DP (Wheat Brown Rust, 1 Day Protectant)
[9] = 72 h, 3 Day Curative, read-out: PUCCRT 3DC (Wheat Brown Rust, 3 Day Curative)
[10] = 24 h, 1 Day Protectant, read-out: SEPTTR 1DP % Control rating
[11] = 72 h, 3 Day Curative, read-out: SEPTTR 3DC % Control rating
[12] = 24 h, 1 Day Protectant, read-out: PUCCRT 1DP % Control rating
[13] = 72 h, 3 Day Curative, read-out: PUCCRT 3DC % Control rating

Row | SMILES | pest or weed control at 25 ppm [1, 4] | pest or weed control at 25 ppm [1, 5] | pest or weed control at 121.5 g/ha [2, 6] | pest or weed control at 121.5 g/ha [2, 7] | pest or weed control at 121.5 g/ha [3, 8] | pest or weed control at 121.5 g/ha [3, 9] | PHAKPA 3DC % Control rating ([1]; soybean, high volume, 25 ppm, 3 Day Curative) | pest or weed control at 100 ppm [2, 10] | pest or weed control at 100 ppm [2, 11] | pest or weed control at 100 ppm [3, 12] | pest or weed control at 100 ppm [3, 13]
1 | COc1cc(F)ccc1[C@@H](OC1CC1)[C@H](C)OC(=O)[C@H](C)NC(=O)c1nccc(OC)c1OC(C)=O [Example 299] | > 80% | < 80% | > 80% | > 80% | > 80% | < 80% | – | – | – | – | –
2 | COc1ccnc(C(=O)N[C@@H](C)C(=O)O[C@@H](C)[C@H](Oc2ccccc2)c2ccc(F)cc2OCC(F)F)c1OC(C)=O [Example 273] | < 80% | < 0% | > 80% | > 80% | > 80% | > 80% | – | – | – | – | –
3 | COc1cc(F)ccc1[C@@H](OC(=O)C(C)(C)C)[C@H](C)OC(=O)[C@H](C)NC(=O)c1nccc(OC)c1OC(C)=O [Example 296] | < 80% | < 80% | > 80% | > 80% | > 80% | < 0% | – | – | – | – | –
4 | COc1ccnc(C(=O)N[C@@H](C)C(=O)O[C@@H](C)[C@H](OCC2CC2)c2ccccc2)c1OC(C)=O [Example 233] | > 80% | < 80% | > 80% | > 80% | > 80% | > 80% | – | – | – | – | –
5 | COc1ccnc(C(=O)N[C@@H](C)C(=O)O[C@@H](C)[C@H](Oc2ccccc2)c2ccccc2)c1OC(C)=O [Example 184] | < 80% | < 80% | > 80% | > 80% | > 80% | > 80% | – | – | – | – | –
6 | COc1ccnc(C(=O)N[C@@H](C)C(=O)O[C@@H](C)[C@H](OCC2CC2)c2ccccc2)c1OCOC(C)=O [Example 182] | > 80% | < 80% | > 80% | > 80% | > 80% | > 80% | – | – | – | – | –
7 | COc1cc(F)ccc1[C@@H](Oc1ccccc1)[C@H](C)OC(=O)[C@H](C)NC(=O)c1nccc(OC)c1OC(C)=O [Example 269] | > 80% | – | > 80% | > 80% | > 80% | > 80% | B (≦80) | – | – | – | –
8 | COc1ccnc(C(=O)N[C@@H](C)C(=O)O[C@@H](C)[C@H](Oc2cccc(F)c2)c2ccccc2)c1OC(C)=O [Example 188] | > 80% | < 80% | > 80% | > 80% | > 80% | > 80% | – | – | – | – | –
9 | C=CCOc1cc(F)ccc1[C@@H](Oc1ccccc1)[C@H](C)OC(=O)[C@H](C)NC(=O)c1nccc(OC)c1OC(C)=O [Example 264] | < 80% | < 80% | > 80% | > 80% | > 80% | < 0% | – | – | – | – | –
10 | CCOc1cc(F)ccc1[C@@H](Oc1ccccc1)[C@H](C)OC(=O)[C@H](C)NC(=O)c1nccc(OC)c1OC(C)=O [Example 265] | < 80% | < 0% | > 80% | > 80% | > 80% | > 80% | – | – | – | – | –
11 | COc1cc(C)ccc1[C@@H](Oc1ccc(C)cc1)[C@H](C)OC(=O)[C@H](C)NC(=O)c1nccc(OC)c1OC(C)=O [Example 274] | < 80% | < 0% | > 80% | > 80% | > 80% | < 80% | – | – | – | – | –
12 | COc1cc(F)ccc1[C@@H](OCC1CC1)[C@H](C)OC(=O)[C@H](C)NC(=O)c1nccc(OC)c1OC(C)=O [Example 295] | > 80% | < 80% | > 80% | > 80% | > 80% | < 80% | – | – | – | – | –
13 | COc1ccnc(C(=O)N[C@@H](C)C(=O)O[C@@H](C)[C@H](Oc2ccccc2Cl)c2ccccc2)c1OCOC(C)=O [Example 204] | > 80% | < 80% | < 80% | > 80% | > 80% | > 80% | – | – | – | – | –
14 | COc1cc(F)ccc1[C@@H](Oc1ccc(C)cc1Cl)[C@H](C)OC(=O)[C@H](C)NC(=O)c1nccc(OC)c1OC(C)=O [Example 266] | < 80% | < 0% | > 80% | > 80% | > 80% | < 80% | – | – | – | – | –
15 | COc1ccnc(C(=O)N[C@@H](C)C(=O)O[C@@H](C)[C@H](OCC2CC2)c2cccc(-c3ccccc3)c2)c1OCOC(C)=O [Example 220] | > 80% | < 80% | < 80% | > 80% | > 80% | > 80% | – | – | – | – | –
16 | COc1ccnc(C(=O)N[C@@H](C)C(=O)O[C@@H](C)[C@H](Oc2ccccc2)c2ccc(C)cc2F)c1OCOC(C)=O [Example 261] | > 80% | < 0% | > 80% | > 80% | > 80% | > 80% | – | – | – | – | –
17 | CCCOc1cc(F)ccc1[C@@H](Oc1ccccc1)[C@H](C)OC(=O)[C@H](C)NC(=O)c1nccc(OC)c1OC(C)=O [Example 268] | < 80% | < 80% | > 80% | > 80% | > 80% | > 80% | – | – | – | – | –
18 | COc1ccnc(C(=O)N[C@@H](C)C(=O)O[C@@H](C)[C@H](Oc2ccccc2)c2ccc(F)cc2OCC2CC2)c1OC(C)=O [Example 272] | < 80% | < 0% | > 80% | > 80% | > 80% | > 80% | – | – | – | – | –
19 | COc1ccnc(C(=O)N[C@@H](C)C(=O)O[C@@H](C)[C@H](Oc2ccccc2)c2ccc(F)cc2Oc2ccccc2)c1OC(C)=O [Example 275] | < 80% | < 0% | > 80% | < 80% | > 80% | > 80% | – | – | – | – | –
20 | COc1cc(F)ccc1[C@@H](OCC(F)F)[C@H](C)OC(=O)[C@H](C)NC(=O)c1nccc(OC)c1OC(C)=O [Example 294] | < 80% | < 80% | > 80% | > 80% | < 80% | < 80% | – | – | – | – | –
21 | COc1ccnc(C(=O)N[C@@H](C)C(=O)O[C@@H](C)[C@@H](OC)c2ccccc2)c1OCOC(C)=O [Example 230] | < 80% | < 80% | < 0% | > 80% | > 80% | > 80% | – | – | – | – | –
22 | COc1ccnc(C(=O)N[C@@H](C)C(=O)O[C@@H](C)[C@@H](OCC(C)C)c2ccccc2)c1O [Example 136] | – | – | – | – | – | – | – | < 80% | < 0% | < 0% | < 80%
23 | COc1ccnc(C(=O)N[C@@H](C)C(=O)O[C@@H](C)[C@@H](OCC2CC2)c2ccccc2)c1O [Example 142] | – | – | – | – | – | – | – | < 80% | < 80% | > 80% | > 80%
24 | COc1ccnc(C(=O)N[C@@H](C)C(=O)O[C@@H](C)[C@H](Oc2ccc(C)cc2)c2ccc(F)cc2)c1O [Example 152] | – | – | – | – | – | – | – | > 80% | > 80% | > 80% | > 80%
25 | COc1cc(F)ccc1[C@@H](OCC(F)F)[C@H](C)OC(=O)[C@H](C)NC(=O)c1nccc(OC)c1O [Example 288] | – | – | – | – | – | – | – | < 80% | > 80% | > 80% | > 80%
26 | COc1ccnc(C(=O)N[C@@H](C)C(=O)O[C@H](C)[C@@H](Oc2ccccc2)c2ccccc2)c1O [Example 115] | – | – | – | – | – | – | – | < 0% | < 80% | < 0% | > 80%
